Data taken from ChEMBL document CHEMBL1201862, “PubChem BioAssay data set” (2004).
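All cell lines were grown in 96-well plates and treated with compound for 48 hours. At the GI50, growth is halved.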 Calls of active or inactive are those of the source. Cut-off read from the data, not from the text of the source: active = GI50 up to about 1.1 µM and inactive = higher.

What was measured:
Experiment in all cases: NCI anticancer screen, dose series, 48 h
[1] = tested on: HCT-15
[2] = tested on: OVCAR-8
[3] = tested on: OVCAR-3
[4] = tested on: SF-539
[5] = tested on: M14
[6] = tested on: HOP-62
[7] = tested on: K562
[8] = tested on: CCRF-CEM
[9] = tested on: RXF 393
[10] = tested on: SN12C
[11] = tested on: HT-29
[12] = tested on: NCI-H460
[13] = tested on: HOP-92
[14] = tested on: SF-268
[15] = tested on: SK-OV-3
[16] = tested on: SK-MEL-28

SMILES | GI50 [1] [µM] | GI50 [2] | GI50 [3] | GI50 [4] | GI50 [5] | GI50 [6] | GI50 [7] | GI50 [8] | GI50 [9] | GI50 [10] | GI50 [11] | GI50 [12] | GI50 [13] | GI50 [14] | GI50 [15] | GI50 [16]
CNS(=O)(=O)NN(C)S(=O)(=O)c1ccc(Br)cc1 | > 100 | > 100 µM (inactive) | > 100 µM (inactive) | > 100 µM (inactive) | > 100 µM (inactive) | > 100 µM (inactive) | > 100 µM (inactive) | > 100 µM (inactive) | > 100 µM (inactive) | > 100 µM (inactive) | > 100 µM (inactive) | – | – | – | – | –
Cc1c(/C=N/NC(=O)c2cc(Br)cc(Br)c2O)c(=O)n(-c2ccccc2)n1C | 39.1 | 27.5 µM (inactive) | 29.9 µM (inactive) | 47 µM (inactive) | 36.9 µM (inactive) | 52.7 µM (inactive) | 51.4 µM (inactive) | 23.3 µM (inactive) | – | 69.7 µM (inactive) | 64.7 µM (inactive) | 39.2 µM (inactive) | 30.1 µM (inactive) | 83.8 µM (inactive) | > 100 µM (inactive) | 20.8 µM (inactive)
CCC1NCC(=O)c2c1[nH]c1ccccc21 (stereo not drawn) | > 100 | > 100 µM (inactive) | > 100 µM (inactive) | > 100 µM (inactive) | > 100 µM (inactive) | – | > 100 µM (inactive) | > 100 µM (inactive) | – | > 100 µM (inactive) | > 100 µM (inactive) | > 100 µM (inactive) | > 100 µM (inactive) | > 100 µM (inactive) | > 100 µM (inactive) | > 100 µM (inactive)
Cc1c(C(=O)CSc2nc3cc([N+](=O)[O-])ccc3[nH]2)c(=O)n(-c2ccccc2)n1C | > 100 | > 100 µM (inactive) | 71.8 µM (inactive) | > 100 µM (inactive) | > 100 µM (inactive) | > 100 µM (inactive) | – | > 100 µM (inactive) | – | > 100 µM (inactive) | > 100 µM (inactive) | > 100 µM (inactive) | > 100 µM (inactive) | > 100 µM (inactive) | > 100 µM (inactive) | > 100 µM (inactive)
Cc1cc2c(=O)c3ccc(Cl)cc3[nH]c2c(C(N)=O)c1C | > 100 | > 100 µM (inactive) | > 100 µM (inactive) | > 100 µM (inactive) | > 100 µM (inactive) | > 100 µM (inactive) | 83.2 µM (inactive) | > 100 µM (inactive) | – | > 100 µM (inactive) | > 100 µM (inactive) | > 100 µM (inactive) | > 100 µM (inactive) | > 100 µM (inactive) | > 100 µM (inactive) | > 100 µM (inactive)
CCCN1CN(C(C(=O)N[C@@H]2C(=O)N3C2SC(C)(C)C3C(=O)O)c2ccccc2)CSC1=S (stereo partly drawn) | 80.5 | > 100 µM (inactive) | 32.2 µM (inactive) | > 100 µM (inactive) | > 100 µM (inactive) | > 100 µM (inactive) | 41.6 µM (inactive) | 95.9 µM (inactive) | – | > 100 µM (inactive) | 48.1 µM (inactive) | > 100 µM (inactive) | > 100 µM (inactive) | > 100 µM (inactive) | > 100 µM (inactive) | > 100 µM (inactive)
COc1cc2c(cc1OC)C(=O)C(C1=C(SC(=N)N)C(=O)c3cc(OC)c(OC)cc31)C2 (stereo not drawn) | > 100 | > 100 µM (inactive) | > 100 µM (inactive) | > 100 µM (inactive) | > 100 µM (inactive) | 71.4 µM (inactive) | > 100 µM (inactive) | > 100 µM (inactive) | – | > 100 µM (inactive) | > 100 µM (inactive) | > 100 µM (inactive) | – | > 100 µM (inactive) | > 100 µM (inactive) | > 100 µM (inactive)
COc1ccc2cc3[n+](cc2c1O)CCc1cc2c(cc1-3)OCO2 [BERBERRUBINE CHLORIDE] | > 100 | > 100 µM (inactive) | > 100 µM (inactive) | > 100 µM (inactive) | > 100 µM (inactive) | > 100 µM (inactive) | > 100 µM (inactive) | 80.7 µM (inactive) | > 100 µM (inactive) | > 100 µM (inactive) | 96.4 µM (inactive) | 54 µM (inactive) | – | > 100 µM (inactive) | > 100 µM (inactive) | > 100 µM (inactive)
